Legend:
HIV = conditions: human, in vivo; cited from earlier work
[1] = test system: fusion between HeLa-EnvJR-FL and PM1 cells
Experimental: HIV-1 envelope-mediated fusion between HeLa-EnvJR-FL and PM1 cells was detected using a Resonance Energy Transfer (RET) assay.
HIV-1 inhibition data were analyzed according to the Combination Index method of Chou and Talay. The data are modeled according to the median-effect principle, which can be written f=1/[1+(K/c)^m] (1) where f is the fraction affected/inhibited, c is concentration, K is the concentration of agent required to produce the median effect, and m is an empirical coefficient describing the shape of the dose-response curve. Equation (1) is a generalized form of the equations describing Michaelis-Menton enzyme kinetics, Langmuir adsorption isotherms, and Henderson-Hasselbalch ionization equilibria, for which m=1 in all cases. In the present case, K is equal to the IC50 value. K and m are determined by curve-fitting the dose-response curves.
After the best-fit parameters for K and m are obtained for the experimental agents and their combination, Equation (1) is rearranged to allow for calculation of c for a given f.
All concentrations are those required to achieve a given degree of inhibition. Equation (2) is used when the molecules are mutually nonexclusive, i.e., have different sites of action. Since this is the likely scenario for inhibitors of HIV-1 attachment and gp41 fusion intermediates, Equation (2) was used for all Combination Index calculations. […] CI<1 indicates synergy, CI=1 indicates purely additive effects, and CI>1 indicates antagonism. In general, CI values are most relevant at the higher levels of inhibition that are required to achieve a measurable clinical benefit.

**Q.** Which “reduction of plasma HIV RNA levels” value (HIV) does the source give for enfuvirtide here?
**A.** ≤ 2 logs

**Q.** And the “concentration of the agent contained in the combination giving 95% inhibition” value ([1]; 25:1 CD4-IgG2:T-20 mass ratio)?
**A.** 0.044 µg/mL

**Q.** What about the “dose reduction by the combination” value ([1]; 95% inhibition, 25:1 mass ratio) of the same substance?
**A.** 5 fold

**Q.** And the “K (equal to IC50), best-fit median effect parameter” value ([1]; FIG. 8, combination 25:1 CD4-IgG2:T-20)?
**A.** 0.017 µg/mL

**Q.** And the “concentration required for inhibition of viral entry by 95%” value ([1]; agent used alone, or total of 25:1 mass ratio combination)?
**A.** 0.21 µg/mL

— US7060273B2, “Methods for inhibiting HIV-1 infection” (priority 2001, dated 2006)
